“And” between values parts separate entries of the source, which are not always exact repeats. Identical values can stand only once. Like-named read-outs stand apart in the source and are kept apart here.
Assays:
[1] = tested on: E. coli, S. aureus, S. choleraesuis
Bacillus subtilis spores = tested on: Bacillus subtilis spores
Method: A protocol analogous to that used for the food crops was employed for spore testing on stainless steel coupons. 3-1.75 cm×3.75 cm stainless steel coupons were each inoculated (front & back) with a total of 100 μL of Bacillus subtilis spores. The spores were allowed to dry and the three coupons were aseptically transferred to a Ziploc® bag. The remaining protocol used was similar to that of the food crops except that each coupon was neutralized in 8 mL of 10% thiosulfate solution and each coupon's solution was serially diluted and plated onto media.

[2] = tested on: streptomycin-resistant E. coli; conditions: 180° F.; for Log Post-Disinfection (CFU/g) / Log Reduction (CFU/g): DT 18 min
Method: (§1) The following experiments were performed using a system in accordance with the present invention. Food crops were pruned of inedible roots, leaves, etc., and weighed. A given food crop was then inoculated with a single challenge microorganism. All challenge microorganisms were purchased from ATCC as streptomycin-resistant strains-Esherichia coli (E. coli), Staphylococcus aureus (S. aureus), and Salmonella choleraesuis (S. choleraesuis). […] After inoculation, the crops were left to dry for 30 minutes to 1 hour. The crops were then placed in the Ziploc® bag and into the vacuum chamber. […] Parameters such as vacuum pressure, dispensing time, and sterilization wait time were varied in order to arrive at some conclusion concerning the optimum conditions for effective disinfection of the food crops. After the disinfection cycle had ended, the crops were neutralized in 50 mL of 10% thiosulfate solution contained in a sterile mastication bag.
(§2) The bag was then placed in a masticator and pulverized for 2 minutes. The liquid contents were then serially diluted and plated onto the appropriate agar medium. The plates were incubated at 37° C. for 24 hours and plate counts were performed. […] A log reduction in terms of CFU/g was calculated by subtracting the plate counts of the disinfected food from that of its respective control, as shown in Table 1.
(§3) Lettuce was used as the food crop while streptomycin-resistant E. coli was chosen as the challenge microorganism. […] Each food crop was inoculated with streptomycin-resistant strains of E. coli, S. aureus, and S. choleraesuis in separate experiments and 3 minutes was used as the dispense time in every run.

[3] = tested on: streptomycin-resistant S. aureus; conditions: 180° F.; for Log Post-Disinfection (CFU/g) / Log Reduction (CFU/g): DT 18 min
Method: as §1, §2, §3

[4] = tested on: streptomycin-resistant S. choleraesuis; conditions: Radishes; dispense time 3 min; 180° F.; 18 inch Hg; wait 0 min
Method: as §1, §2, §3

[5] = stainless steel coupons, 12 minute dispense time, 180° F., 18 inch Hg, wait 0 min
[6] = Carrots, VP 15 inch Hg, SW 10 min
[7] = Carrots, VP 15 inch Hg, SW 15 min
[8] = Carrots, VP 15 inch Hg, SW 20 min
[9] = Carrots, VP 15 inch Hg, SW 30 min
[10] = Carrots, VP 17 inch Hg, SW 5 min
[11] = Carrots, VP 18 inch Hg, SW 10 min
[12] = Lettuce, VP 15 inch Hg, SW 10 min
[13] = Lettuce, VP 15 inch Hg, SW 15 min
[14] = Radishes, VP 15 inch Hg, SW 10 min
[15] = Radishes, VP 15 inch Hg, SW 15 min
[16] = Table 3, Lettuce, dispense time 3 min, 18 inch Hg, wait 0 min
[17] = Radishes, VP 15 inch Hg, SW 30 min
[18] = Radishes, VP 20 inch Hg, SW 5 min
[19] = Radishes, VP 20 inch Hg, SW 10 min
[20] = Radishes, VP 20 inch Hg, SW 15 min
[21] = Radishes, dispense time 3 min, 18 inch Hg, wait 0 min

OO [hydrogen peroxide]
log reductions for every combination of food crop and microbial challenge (Table 3) ([1]; 3 minutes dispense time): greater than 3 | average log reduction of all of the runs shown in Table 1 ([1]; all food crops, microbial challenges and parameters of Table 1): 4.63 | log reduction (lowest over all runs of Table 1) ([1]; no matter the food crop, microbial challenge or disinfection parameters): ≥ 2 | Log10 Post-Disinfection (CFU/cm^2) (Bacillus subtilis spores; [5]): 0 CFU/cm^2 | Log10 Reduction (CFU/cm^2) (Bacillus subtilis spores; [5]): 5.42 CFU/cm^2 | eradication of spores (Bacillus subtilis spores; within a 12 minute dispense time): completely eradicate spores | Log Post-Disinfection (CFU/g) [2, 6]: 0 CFU/g | Log Reduction (CFU/g) [2, 6]: 4.90 CFU/g | Log Post-Disinfection (CFU/g) [2, 7]: 0 CFU/g | Log Reduction (CFU/g) [2, 7]: 4.90 CFU/g | Log Post-Disinfection (CFU/g) [2, 8]: 0 CFU/g | Log Reduction (CFU/g) [2, 8]: 5.45 CFU/g | Log Post-Disinfection (CFU/g) [2, 9]: 0 CFU/g | Log Reduction (CFU/g) [2, 9]: 4.90 CFU/g | Log Post-Disinfection (CFU/g) [2, 10]: 0 CFU/g | Log Reduction (CFU/g) [2, 10]: 5.45 CFU/g | Log Post-Disinfection (CFU/g) [2, 11]: 0 CFU/g | Log Reduction (CFU/g) [2, 11]: 5.45 CFU/g | Log Post-Disinfection (CFU/g) [2, 12]: 0 CFU/g | Log Reduction (CFU/g) [2, 12]: 6.38 CFU/g | Log Post-Disinfection (CFU/g) [2, 13]: 1.93 CFU/g | Log Reduction (CFU/g) [2, 13]: 4.31 CFU/g | Log Post-Disinfection (CFU/g) [2, 14]: 2.85 CFU/g | Log Reduction (CFU/g) [2, 14]: 2.95 CFU/g | Log Post-Disinfection (CFU/g) [2, 15]: 3.73 CFU/g | Log Reduction (CFU/g) [2, 15]: 2.07 CFU/g | Log10 Post-Disinfection (CFU/g) [2, 16]: 0 CFU/g | Log10 Reduction (CFU/g) [2, 16]: ≧6.23 CFU/g | Log Post-Disinfection (CFU/g) [3, 13]: 0 CFU/g | Log Reduction (CFU/g) [3, 13]: 6.81 CFU/g | Log Post-Disinfection (CFU/g) [3, 17]: 0 CFU/g | Log Reduction (CFU/g) [3, 17]: 6.33 CFU/g | Log Post-Disinfection (CFU/g) [3, 18]: 0 CFU/g | Log Reduction (CFU/g) [3, 18]: 6.09 CFU/g | Log Post-Disinfection (CFU/g) [3, 19]: 0 CFU/g | Log Reduction (CFU/g) [3, 19]: 6.09 CFU/g | Log Post-Disinfection (CFU/g) [3, 20]: 1.61 CFU/g | Log Reduction (CFU/g) [3, 20]: 4.48 CFU/g | Log10 Post-Disinfection (CFU/g) [3, 21]: 0 CFU/g | Log10 Reduction (CFU/g) [3, 21]: ≧5.25 CFU/g | Log10 Post-Disinfection (CFU/g) [4]: 1.67 CFU/g and 1.95 CFU/g and 1.82 CFU/g

Reference: US20050147527A1, “Microbial destruction using a gas phase decontaminant” (priority 2004, published 2005)
